Data published in patent US20150289512A1, “METHOD FOR PROMOTING PLANT GROWTH” (SUMITOMO CHEMICAL COMPANY, LIMITED, priority 2012, published 2015).

These molecules were tested on Nicotiana benthamiana (assay: Test Example 4: growth promotion under low-temperature stress by hydroponics of Nicotiana benthamiana, 10 ppm). Details: 10 ppm in medium, low-temperature stress 7 days at 1.5±1.0° C., green leaf area 3 days later, equation (1).
Format: in vivo
Summary of the method: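 Nicotiana benthamiana grown 7 days at 22 °C in half-strength Murashige-Skoog medium, pH 5.8, with compound at 10 ppm (DMSO 1/1,000 v/v), chilled 7 days at 1.5±1.0 °C, recovered 3 days at 22 °C. Green leaf area expressed relative to stressed and unstressed DMSO controls; ≥5 scored as mitigating.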
`COC(=O)c1oc2ccc(C(F)(F)F)cc2c1N(C)C` [Compound 62] was tested, and the relative leaf area at 10 ppm was at least 5%.
With `COC(=O)c1oc2ccccc2c1N(C(C)=O)C(C)=O` [Compound 41] the relative leaf area at 10 ppm was at least 5%.
For `COC(=O)c1oc2ccc(C(F)(F)F)cc2c1NC(=O)C(F)(F)F` [Compound 65], the relative leaf area at 10 ppm was at least 5%.
`O=C(OCc1ccccc1)c1cc2cc(C(F)(F)F)ccc2o1` [Compound 56] gave a relative leaf area at 10 ppm of at least 5%.
For `COC(=O)c1oc2ccc(C(F)(F)F)cc2c1NC(C)=O` [Compound 63], the relative leaf area at 10 ppm was at least 5%.
With `CNC(=O)c1oc2ccc(C(F)(F)F)cc2c1C(F)(F)F` [Compound 75] the relative leaf area at 10 ppm was at least 5%.
With `O=C(NCc1ccccc1)c1oc2ccc(C(F)(F)F)cc2c1C(F)(F)F` [Compound 77] the relative leaf area at 10 ppm was at least 5%.
`NC(=O)c1oc2ccc(C(F)(F)F)cc2c1C(F)(F)F` [Compound 74] gave a relative leaf area at 10 ppm of at least 5%.
`COC(=O)c1cc2ccccc2o1` [Compound 1] gave a relative leaf area at 10 ppm of at least 5%.
In the case of `O=C(O)c1cc2c(C(F)(F)F)cccc2o1` [Compound 43], the relative leaf area at 10 ppm is reported as at least 5%.
`COC(=O)c1oc2ccc(C(F)(F)F)cc2c1C` [Compound 33] gave a relative leaf area at 10 ppm of at least 5%.
For `O=C(NCc1ccccc1)c1cc2cc(C(F)(F)F)ccc2o1` [Compound 54], the relative leaf area at 10 ppm was at least 5%.
`COC(=O)c1oc2ccccc2c1C(F)(F)F` [Compound 83] showed a relative leaf area at 10 ppm of at least 5%.
Molecule `COC(=O)c1oc2ccc(C(F)(F)F)cc2c1NS(C)(=O)=O` [Compound 67] has a relative leaf area at 10 ppm of at least 5%.
Molecule `O=C(OCc1ccccc1)c1oc2ccc(C(F)(F)F)cc2c1C(F)(F)F` [Compound 73] has a relative leaf area at 10 ppm of at least 5%.
`O=C(O)c1nc2c(F)cc(F)cc2s1` [Compound 86] gave a relative leaf area at 10 ppm of at least 5%.
`Cc1c(C(=O)O)oc2ccc(C(F)(F)F)cc12` [Compound 34] showed a relative leaf area at 10 ppm of at least 5%.
Molecule `NC(=O)c1cc2cc(C(F)(F)F)ccc2o1` [Compound 51] has a relative leaf area at 10 ppm of at least 5%.
`O=C(Nc1ccccc1)c1cc2cc(C(F)(F)F)ccc2o1` [Compound 53] showed a relative leaf area at 10 ppm of at least 5%.
Molecule `CCOC(=O)c1oc2ccc(C(F)(F)F)cc2c1C(F)(F)F` [Compound 71] has a relative leaf area at 10 ppm of at least 5%.
`COC(=O)c1oc2ccc(C(F)(F)F)cc2c1N(C(C)=O)C(C)=O` [Compound 64] gave a relative leaf area at 10 ppm of at least 5%.
Work on `COC(=O)c1oc2ccccc2c1NC(C)=O` [Compound 40] yielded a relative leaf area at 10 ppm of at least 5%.
`O=C(O)c1cc2cc(Br)ccc2o1` [Compound 79] showed a relative leaf area at 10 ppm of at least 5%.
In the case of `O=C(O)c1oc2ccccc2c1C(F)(F)F` [Compound 82], the relative leaf area at 10 ppm is reported as at least 5%.
Molecule `CCOC(=O)c1cc2c(C(F)(F)F)cccc2o1` [Compound 44] has a relative leaf area at 10 ppm of at least 5%.
For `O=C(Oc1ccccc1)c1cc2cc(C(F)(F)F)ccc2o1` [Compound 55], the relative leaf area at 10 ppm was at least 5%.
Molecule `COC(=O)c1oc2ccccc2c1NC(=O)C(F)(F)F` [Compound 39] has a relative leaf area at 10 ppm of at least 5%.
`O=C(O)c1oc2ccc(C(F)(F)F)cc2c1C(F)(F)F` [Compound 69] was tested, and the relative leaf area at 10 ppm was at least 5%.
